Laboratory results: the supplement of paper PMC10307832

Key:
Experiment in all cases: relative viability (nuclei count vs DMSO), 5 days (fraction); higher = more cells survive
FG-4592 + Trametinib = compound: Cc1nc(C(=O)NCC(=O)O)c(O)c2ccc(Oc3ccccc3)cc12 [FG-4592] + CC(=O)Nc1cccc(-n2c(=O)n(C3CC3)c(=O)c3c(Nc4ccc(I)cc4F)n(C)c(=O)c(C)c32)c1 [Trametinib] (partner 0.02 µM)
Outline: (§1)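 The day after seeding in 1536-well plates, lung cancer cell lines were treated by pin tool with a single drug, or with a fixed anchor-drug dose together with five library-drug doses (not always all listed) in √10 steps. After 5 days, a combined fix-and-stain solution (final 0.05% Triton X-100, 1% formaldehyde, 1 ug/ml Hoechst) was added. Nuclei counted on 4× images gave relative viability as treated counts over vehicle counts, reported as the median of duplicate plates.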

FG-4592 + Crizotinib = compound: Cc1nc(C(=O)NCC(=O)O)c(O)c2ccc(Oc3ccccc3)cc12 [FG-4592] + C[C@@H](Oc1cc(-c2cnn(C3CCNCC3)c2)cnc1N)c1c(Cl)ccc(F)c1Cl [Crizotinib] (partner 1 µM)
Outline: as §1

FG-4592 + OSI-027 = compound: Cc1nc(C(=O)NCC(=O)O)c(O)c2ccc(Oc3ccccc3)cc12 [FG-4592] + COc1cccc2cc(-c3nc([C@H]4CC[C@H](C(=O)O)CC4)n4ncnc(N)c34)[nH]c12 [OSI-027] (partner 0.5 µM)
Outline: as §1

IU1-47 + Olaparib = compound: CC1=CC(=C(N1C2=CC=C(C=C2)Cl)C)C(=O)CN3CCCCC3 [IU1-47] + O=C(c1cc(Cc2n[nH]c(=O)c3ccccc23)ccc1F)N1CCN(C(=O)C2CC2)CC1 [Olaparib] (partner 8 µM)
Outline: as §1

Row | Cell Line | relative viability (FG-4592 + Trametinib; first compound 0.08 µM) | relative viability (FG-4592 + Trametinib; first compound 0.253 µM) | relative viability (FG-4592 + Trametinib; first compound 0.8 µM) | relative viability (FG-4592 + Trametinib; first compound 2.53 µM) | relative viability (FG-4592 + Trametinib; first compound 8 µM) | relative viability (FG-4592 + Crizotinib; first compound 0.08 µM) | relative viability (FG-4592 + Crizotinib; first compound 0.253 µM) | relative viability (FG-4592 + Crizotinib; first compound 0.8 µM) | relative viability (FG-4592 + Crizotinib; first compound 2.53 µM) | relative viability (FG-4592 + Crizotinib; first compound 8 µM) | relative viability (FG-4592 + OSI-027; first compound 0.08 µM) | relative viability (FG-4592 + OSI-027; first compound 0.253 µM) | relative viability (FG-4592 + OSI-027; first compound 2.53 µM) | relative viability (FG-4592 + OSI-027; first compound 8 µM) | relative viability (IU1-47 + Olaparib; first compound 0.08 µM) | relative viability (IU1-47 + Olaparib; first compound 0.253 µM) | relative viability (IU1-47 + Olaparib; first compound 0.8 µM) | relative viability (IU1-47 + Olaparib; first compound 2.53 µM) | relative viability (IU1-47 + Olaparib; first compound 8 µM) | relative viability (FG-4592 + OSI-027; first compound 0.8 µM)
1 | HCC-44 | 1.06 | 1.08 | 1.1 | 0.991 | 1.08 | 0.754 | 0.798 | 0.878 | 0.805 | 0.82 | 0.504 | 0.489 | 0.476 | 0.377 | 1.07 | 0.978 | 1.03 | 1.06 | 0.93 | 
2 | COR-L23 | 0.678 | 0.519 | 0.608 | 0.508 | 0.355 | 0.574 | 0.571 | 0.833 | 0.679 | 0.638 | 0.798 | 0.617 | 0.701 | 0.468 | 0.382 | 0.389 | 0.314 | 0.396 | 0.405 | 0.793
3 | HCC-78 | 0.719 |  | 0.741 | 0.578 | 0.743 | 0.312 | 0.332 | 0.269 | 0.31 | 0.337 | 0.346 | 0.307 | 0.357 | 0.362 | 0.803 | 0.792 | 0.805 | 0.59 | 0.813 | 0.406
4 | NCI-H727 | 0.363 | 0.335 | 0.352 | 0.357 | 0.38 | 0.776 | 0.827 | 0.913 | 1.1 | 0.83 | 0.41 | 0.46 | 0.524 | 0.593 | 0.661 | 0.729 | 0.691 | 0.64 | 0.66 | 0.596
5 | NCI-H2087 | 0.224 | 0.19 | 0.198 |  | 0.235 | 0.722 | 0.648 | 1.01 | 0.997 | 0.896 | 0.559 | 0.538 | 0.473 | 0.486 | 0.587 | 0.633 | 0.563 | 0.646 | 0.476 | 0.669
6 | BEN | 0.916 | 0.913 | 0.783 | 0.879 | 0.871 | 0.729 | 0.745 | 0.743 | 0.803 | 0.594 | 0.222 | 0.287 | 0.313 | 0.299 | 1.1 | 1.06 | 1.12 | 1.11 | 0.933 | 0.315
7 | LCLC-103H | 0.713 | 0.582 | 0.684 | 0.684 | 0.69 | 0.884 | 0.977 | 1.01 | 0.994 | 1.05 | 0.445 | 0.45 | 0.421 | 0.373 | 0.794 | 0.831 | 0.779 | 0.77 | 0.737 | 0.455
8 | EKVX | 0.318 | 0.352 | 0.334 | 0.332 | 0.24 | 1.08 | 0.816 | 1.23 | 0.977 | 1.02 | 0.626 | 0.649 | 0.663 | 0.73 | 0.827 | 1.06 | 0.896 |  | 0.87 | 0.718
9 | LXF-289 | 0.676 | 0.68 | 0.682 | 0.712 | 0.731 | 0.796 | 0.721 | 0.911 | 0.77 | 0.901 | 0.659 | 0.717 | 0.709 | 0.821 | 1.08 | 1.15 | 1.09 | 0.993 | 0.862 | 0.755
10 | NCI-H650 | 1.06 | 0.936 | 0.916 | 1 | 0.838 | 0.598 | 0.648 | 0.756 | 0.654 | 0.61 | 0.492 | 0.457 | 0.45 | 0.407 | 0.447 | 0.426 | 0.378 | 0.4 | 0.413 | 0.433
11 | NCI-H1650 | 0.604 | 0.573 | 0.615 | 0.603 | 0.628 | 1.14 | 0.826 | 1.21 | 1.05 | 1.02 | 0.523 | 0.603 | 0.621 | 0.634 | 0.756 | 0.797 | 0.736 | 0.968 | 0.797 | 0.839
12 | NCI-H2085 | 0.48 | 0.539 | 0.718 | 0.629 | 0.516 | 0.852 | 0.871 | 0.928 | 1.03 | 0.742 | 0.788 | 0.735 | 0.519 | 0.652 | 0.777 | 0.763 | 0.747 | 0.768 | 0.742 | 0.648
13 | LC-2-ad | 0.896 | 0.675 | 0.953 | 0.842 | 0.967 | 0.433 | 0.412 | 0.48 | 0.508 | 0.486 | 0.838 | 0.753 | 0.591 | 0.661 | 0.726 | 0.711 | 0.673 |  | 0.732 | 
14 | COR-L 105 | 0.45 | 0.461 | 0.445 | 0.434 | 0.397 | 0.785 | 0.578 | 0.77 | 0.898 | 0.723 | 0.555 | 0.602 | 0.551 | 0.435 | 0.817 | 0.78 | 0.699 | 0.665 | 0.745 | 0.767
15 | NCI-H1355 | 0.462 | 0.455 |  | 0.421 | 0.337 | 1.05 | 1.02 |  | 1.07 | 0.944 | 0.376 | 0.372 | 0.301 | 0.35 | 0.781 | 0.826 | 0.751 |  | 0.781 | 0.353
16 | H3255 | 0.6 | 0.547 | 0.5 | 0.602 | 0.532 | 0.963 | 0.79 | 0.827 | 0.917 | 1.05 | 0.573 | 0.576 | 0.617 | 0.62 | 0.64 | 0.609 | 0.569 | 0.54 | 0.561 | 0.626
